Results from patent US20060210479A1 (Dow Global Technologies Inc., priority 2004, published 2006).
Like-named read-outs stand apart in the source and are kept apart here.

What was measured:
LNCaP cell line = experiment: Chelate permeability: fluorescence of cytoplasm and membrane fractions; format: cell-based, human
T84 cell line = experiment: as above; format: cell-based, human; settings: 1 mM chelate, 2 h, Table 1
Caco-2 cell line = experiment: as above; format: cell-based, human
RBL-2H3 cell line = experiment: as above; format: cell-based, rat; settings: 0-2000 μM, 2 hours
Experimental: Tb-PCTMB (Tb(III) 3,6,9-tris(methylene phosphonic acid n-butyl ester)-3,6,9,15-tetraazabicyclo[9.3.1]pentadeca-1(15),11,13-triene) was tested for permeability to abnormal and disease-state cells.
RBL-2H3 is a rat basophilic leukemia cell line. These cells were grown in Iscove's Medium supplemented with 2 mM L-glutamnine, penicillin/streptomycin (100 IU/mL, 100 μg/mL) and 10% FBS. Cells were maintained at 5% CO2 and 95% humidity. PZ-HPV-7 cell line was derived from epithelial cells cultured from normal prostate tissue. They were grown in Keratinocyte-Serum Free Medium with human recombinant EGF and bovine pituitary extract supplemented with 50 μg/mL gentamicin and penicillin/streptomycin (100 IU/mL, 100 μg/mL). All media and supplements were purchased from Gibco BRL (Grand Island, N.Y., USA). All cell lines were obtained from ATCC and were maintained at 37° C., 5% CO2 and 95% humidity.
Cells were grown to confluence in T-150 flasks (about 2×10^6 cells). […] Cells were then removed from the flask by manual scraping. Cells were transferred to a 50-mL conical tube and centrifuged (400×g) for 5 minutes and the test material removed.
Cells were grown as described herein (Example 1). Cells were grown to confluence in T-150 flask (about 2×10^6 cells). […] Cells were then removed from the flask by manual scraping. Cells were transferred to a 50-mL conical tube and centrifuged (400×g) for 5 minutes and the test material removed.
Furthermore, one analogue, QCTMP (FIG. 26), having lesser lipophilic character (a free phosphonic acid moiety) was evaluated. […] In this study, the cytoplasm and membrane fractions were extracted by Mem-PER Eukaryotic Membrane Protein Extraction Reagent Kit as described by the manufacturers (Pierce Biotechnology, Rockford, Ill.) and analyzed by a Fluor-S Multilmager.

[1] = test system: PZ-HPV-7 normal cell line; experiment: as above; format: cell-based; settings: PZ-HPV-7
[2] = test system: HEK293 cells, normal (non-induced); experiment: Permeability of chelates to HEK293 cells, fluorescence of fractions; format: cell-based, human; settings: HEK293 Normal; 1 mM chelate, 2 hours
Experimental: (§1) The human kidney transformed HEK293 cells (obtained from the ATCC) were grown in Eagle's Minimum Essential Medium (EMEM) supplemented with 10% (v/v) heat-inactivated fetal bovine serum, sodium pyruvate, nonessential amino acids and antibiotics in a humidified 5% CO2 atmosphere at 37° C. Medium and supplements were purchased from Gibco bRL (Grand Island, N.Y.). Etoposide was obtained from Sigma (St. Louis, Mo.) and prepared as 20 mM solution in dimethyl sulfoxide (DMSO). For treatments, etoposide was applied to the HEK293 cultures at 1:1000 dilution (final concentration of 20 μM) after cell became 75% confluent. As a control, cells were fed with medium containing 0.1% DMSO in the absence of etoposide. After treatment with etoposide, cells were incubated in a humidified 5% CO2 at 37° C. for 24 hours. HEK293 cells were collected by removing treatment medium and washed 2 times with 10 mM HEPES buffer. Final cell pellets were resuspended in a small amount of HEPES and stored at 4° C. for further study.
(§2) Cells were grown to confluence in T-150 flasks (about 2×10^6 cells). […] After treatment, the chelate or analogue supernatant was discarded and the cells were rinsed three times at room temperature with 10 mM HEPES. Cells were then removed from the flask by manual scraping. Cells were transferred to a 50-mL conical tube and centrifuged (400×g) for 5 minutes and the test material removed. Remaining cells were rinsed twice with cold 10 mM HEPES. Cells were used in cell binding assays.

[3] = test system: etoposide-induced (apoptotic) HEK293 cells; experiment: Permeability of chelates to apoptotic cells, fluorescence of fractions; format: cell-based, human
Experimental: as §1, §2

[4] = test system: cancer cells (LNCaP, Caco-2, T84); experiment: Chelate permeability and specificity, cancer cells versus normal cells (summary); format: cell-based, human; settings: cancer cells
[5] = test system: DMBA-induced tumor tissue of buccal cheek pouch; settings: 2 mM solution topical, 10 minutes; for Fluorescence/mg Cytoplasm / Fluorescence/mg Membrane: readings Adjusted Volume CNT*mm2
[6] = test system: normal cheek pouch tissue; settings: 2 mM solution topical, 10 minutes, readings Adjusted Volume CNT*mm2
HSPC194 = HSPC194 (Homo sapiens, UniProt Q9P0S9); settings: LNCaP, T84, Caco-2, RBL-2H3; 2 hours
Experimental: Cell samples were lysed in parallel by sonication or by lysis in hypotonic buffer. Cell fractions were collected from discontinuous sucrose gradients and from separate Percoll gradients, after ultracentrifugation.
Following fractionation, each sample was lyophilized to enrich the sample.
The resulting tryptic peptides were analyzed directly by mass spectrometry. Peptide mass fingerprints were generated for the identification of the protein, and MALDI-PSD was used to sequence Fragments T3, T4, T5, and T6. The resulting data were used to search GenBank for a human protein having or a nucleic acid encoding, an amino acid sequence matching this set of peptides.

[7] = test system: cancer cell lines (LNCaP, T84, Caco-2, RBL-2H3) and healthy control cells
[8] = 0-2000 μM, 2 hours, compared to PZ-HPV-7

Sequence of HSPC194 (Q9P0S9 whole entry): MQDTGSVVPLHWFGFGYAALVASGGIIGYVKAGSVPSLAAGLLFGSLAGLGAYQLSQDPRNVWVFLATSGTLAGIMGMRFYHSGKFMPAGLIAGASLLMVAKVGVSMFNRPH

CCCCOP(=O)([O-])CN1CCN(CP(=O)([O-])OCCCC)Cc2cccc(n2)CN(CP(=O)([O-])OCCCC)CC1.[Tb+3] [Tb-PCTMB, Tb(III) 3,6,9-tris(methylenephosphonic acid n-butyl ester)-3,6,9,15-tetraazabicyclo[9.3.1]pentadeca-1(15),11,13-triene]
fluorescence in the cytoplasm, dose response (LNCaP cell line; [8]): significant increases in fluorescence
Fluorescence/mg Cytoplasm (LNCaP cell line; 1 mM chelate, 2 h, Table 1): 616.8
Fluorescence/mg Membrane (LNCaP cell line; 1 mM chelate, 2 h, Table 1): 448.9
Fluorescence/mg Cytoplasm (T84 cell line): 476.4
Fluorescence/mg Membrane (T84 cell line): 355.5
fluorescence in the membrane fractions, dose response (Caco-2 cell line; 0-2000 μM, 2 hours): detectable quantity of fluorescence
fluorescence in the cytoplasm, dose response (Caco-2 cell line; [8]): significant increases in fluorescence
Fluorescence/mg Cytoplasm (Caco-2 cell line; 1 mM chelate, 2 h, Table 1): 481.6
Fluorescence/mg Membrane (Caco-2 cell line; 1 mM chelate, 2 h, Table 1): 398.6
fluorescence in the membrane fractions, dose response (RBL-2H3 cell line): detectable quantity of fluorescence
fluorescence in the cytoplasm, dose response (RBL-2H3 cell line; compared to PZ-HPV-7): significant increases in fluorescence
detectability in normal cells [1]: significantly less detectable
Fluorescence/mg Membrane [2]: 925
permeability to apoptotic induced HEK293 cells [3]: permeable
Fluorescence/mg Membrane ([3]; HEK293 Apoptotic (etoposide 20 μM, 24 hours), 1 mM chelate, 2 hours): 949
permeability to cell membranes [4]: permeable to cancer cell membranes
fluorescence in the cytoplasm of tumor tissue compared to normal tissue [5]: significantly greater fluorescence
Fluorescence/mg Cytoplasm ([5]; Tumor 1): 3014
Fluorescence/mg Membrane ([5]; Tumor 1): 1331
Fluorescence/mg Cytoplasm ([5]; Tumor 2): 3064
Fluorescence/mg Membrane ([5]; Tumor 2): 1484
Fluorescence/mg Cytoplasm ([6]; Normal 1): 1138
Fluorescence/mg Membrane ([6]; Normal 1): 1126
Fluorescence/mg Cytoplasm ([6]; Normal 2): 1117
Fluorescence/mg Membrane ([6]; Normal 2): 1125
binding to protein expressed in cancer cell lines (HSPC194, about 15 kDa) (HSPC194): binds specifically to a single protein
localization in cancer cell lines, confocal fluorescence microscopy [7]: localized throughout the cytoplasm
presence in healthy (control) cells, confocal fluorescence microscopy [7]: not present
